Laboratory results published in US8883720B2, “Template-fixed beta-hairpin peptidomimetics with CXCR4 antagonizing activity” (Polyphor AG, priority 2008, dated 2014).
Numbered stars: 1 amine (or outer) side, 2 acyl side, 3 side chain; on linkers, the order of the positions; unused ones are H or OH. Bridge positions count the residues as written; N and C are the ends. Square brackets hold non-standard residues; d marks the D form. Peptide text beside a SMILES is read from it. Abu(3S-NH2) = C[C@H](N)[C@H](N)C(=O)O; Hpla = O=C(O)[C@@H](O)Cc1ccc(O)cc1; X1 = NCC[C@H](O[*:1])C(=O)[*:2]

Columns and labels:
[1] = test system: human red blood cells (hRBC); type: cell-based; conditions: red cells of human, 1 h
Experimental: 2.5. Hemolysis The depsipeptides were tested for their hemolytic activity against human red blood cells (hRBC). Fresh hRBC were washed three times with phosphate buffered saline (PBS) and centrifuged for 10 min at 2000×g. Compounds (100 μM) were incubated with 20% hRBC (v/v) for 1 h at 37° C. The final erythrocyte concentration was approximately 0.9×10^9 cells/mL. A value of 0% and 100% cell lyses, respectively, was determined by incubation of hRBC in the presence of PBS alone and 0.1% Triton X-100 in H2O, respectively. The samples were centrifuged, the supernatants were 20-fold diluted in PBS buffer and the optical densities (OD) were measured at 540 nm. The 100% lyses value (OD540H2O) gave an OD540 of approximately 1.3-1.8. Percent hemolysis was calculated as follows: (OD540peptide/OD540H2O)×100%.

[2] = Plasma stability, mouse plasma; type: in vitro ADME; conditions: 37° C., sampled up to 240 min, read-out: Plasmastability mouse pl. T1/2
Experimental: (§1) The stability of the depsipeptides in human and mouse plasma was determined by applying the following method: 315 μL/deep well of freshly thawed human plasma (Basler Blutspende-dienst) and mouse plasma (Harlan Sera-Lab, UK), respectively, were spiked with 35 μL/well of compound in PBS (100 μM, triplicate) and incubated at 37° C. At t=0, 15, 30, 60, 120 and 240 min aliquots of 50 μL were transferred to filtration plate wells containing 150 μL/well of acetonitrile. Following shaking for 2 min the occurred suspensions were filtrated by vacuum and finally, 100 μL of each filtrate were transferred to a propylene microtiter plate, and analyzed by LC/MS as follows: Column: Waters, XBridge C18, mobile phases: (A) water+0.1% formic acid and (B) acetonitrile/water, 95/5 (v/v)+0.1% formic acid, gradient: 5%-100% (B) in 2 minutes, electrospray ionization, MRM detection (triple quadrupole). The peak areas were determined and triplicate values are averaged. The stability is expressed in percent of the initial value at t=0. (tx/t0×100). By using the TREND function of EXCEL (Microsoft Office 2003) T1/2 were determined.

human CXCR4 = target: T1, human CXCR4 (Homo sapiens, UniProt P61073); test: Ca2+-assay: CXCR4-antagonizing activity (SDF-1 induced calcium mobilization); type: cell-based; conditions: mouse pre-B cell line 300-19 stably transfected with human CXCR4, read-out: IC50% [nM] ± SD, CXCR4 receptor
T1 construct: expressed in transfected cells; host or cells: mouse pre-B cell line 300-19
Excerpt: 2.3. Ca^2+-Assay: CXCR4-Antagonizing Activity of the Depsipeptides
Increases in intracellular calcium were monitored using a Flexstation 384 (Molecular Devices, Sunnyvale, Calif.) to assay the depsipeptides for CXCR4 antagonism in a mouse pre-B cell line 300-19 stably transfected with human CXCR4 (E. Oberlin, A. Amara, F. Bachelerie, C. Bessia, J.-L. Virelizier, F. Arenzana-Seisdedos, O. Schwartz, J.-M. Heard, I. Clark-Lewis, D. F. Legler, M. Loetscher, M. Baggiolini, B. Moser, Nature 1996, 382, 833-835; M. Loetscher, T. Geiser, T. O'Reilly, R. Zwalen, M. Baggiolini, B. Moser, J. Biol. Chem. 1994, 269, 232-237; M. D'Apuuo, A. Rolink, M. Loetscher, J. A. Hoxie, I. Clark-Lewis, F. Melchors, M. Baggiolini, B. Moser, Eur. J. Immunol. 1997, 27, 1788-1793). The cells were batch loaded with the Calcium 4 Assay kit (Molecular Devices) in assay buffer (Hanks Balanced salt solution [HBSS], 20 mM HEPES, pH 7.4, 0.1% BSA) for 1 h at room temperature and labeled cells were dispensed into black well assays plates (Costar No. 3603). Calcium mobilization induced by stromal-derived factor-1 (SDF-1) was measured in the Flexstation 384 (excitation: 485 nm; emission: 525 nm) for 90 seconds. Antagonist activity of depsipeptides was determined by spiking the cells with compounds prior to SDF-1 addition. Dose response curves (compound concentration versus % maximum response for SDF-1) were determined for each antagonist and IC50 values were calculated by fitting the data to a four parameter logistic equation using SoftmaxPro 4.8 (Molecular Devices).

in vitro = type: cell-based
Experimental: The cytotoxicity of the depsipeptides to HELA cells (Acc57) and COS-7 cells (CRL-1651) was determined using the MTT reduction assay (T. Mossman, J. Immunol. Meth. 1983, 65, 55-63; M. V. Berridge, A. S. Tan, Arch. Biochem. Biophys. 1993, 303, 474-482). Briefly, the method was as follows: 7000 HELA cells/well and 4500 COS-7 cells/well were seeded and grown in 96-well microtiter plates for 24 h at 37° C. at 5% CO2. Thereafter, time zero (Tz) was determined by MTT reduction (see below). The supernatant of the remaining wells was discarded, and fresh medium and compounds in serial dilutions (12.5, 25 and 50 μM, triplicates) were pipetted into the wells. After incubation of the cells for 48 h at 37° C. at 5% CO2 the supernatant was discarded again and 100 μL MTT reagent (0.5 mg/mL in RPMI1640 and DMEM, respectively)/well was added. Following incubation at 37° C. for 2 h the media were aspirated and the cells were spiked (100 μL isopropanol/well). The absorbance of the solubilized formazan was measured at 595 nm (OD595peptide). For each concentration averages were calculated from triplicates. The percentage of growth was calculated as follows: (OD595peptide-OD595Tz-OD595Empty well)/(OD595Tz-OD595Empty well)×100%. The GI50 (Growth Inhibition) concentrations were calculated for each depsipeptide by using a trend line function for the concentrations (50, 25, 12.5 and 0 μM), the corresponding percentages and the value 50, (=TREND (C50:C0, %50:%0, 50).

[3] = Plasma stability, human plasma; type: in vitro ADME; conditions: 37° C., sampled up to 240 min, read-out: Plasmastability human pl. T1/2
Experimental: as §1

T1 sequence (P61073 whole entry): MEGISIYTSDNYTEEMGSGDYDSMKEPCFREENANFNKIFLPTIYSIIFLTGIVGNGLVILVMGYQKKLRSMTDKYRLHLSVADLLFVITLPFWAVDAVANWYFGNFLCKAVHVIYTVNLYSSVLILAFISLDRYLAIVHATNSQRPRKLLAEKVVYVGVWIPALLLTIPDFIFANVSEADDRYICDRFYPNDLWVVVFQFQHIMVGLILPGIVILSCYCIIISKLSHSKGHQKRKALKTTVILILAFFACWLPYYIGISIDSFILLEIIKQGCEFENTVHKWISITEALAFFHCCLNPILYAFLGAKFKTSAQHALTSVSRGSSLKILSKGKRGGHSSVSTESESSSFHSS

half-life at 10 μM [2] [min]	IC50 (human CXCR4) [nM]	GI50 at 48 h (in vitro; African green monkey) [µM]	GI50 at 48 h (in vitro; human) [µM]	half-life at 10 μM [3] [min]	Compound	Hemolysis at 100 μM [1] [%]
4.3	13.5 ± 5	> 50	> 50	4.2	C[C@@H]1NC(=O)[C@H](CCN)OC(=O)[C@H](Cc2ccc(O)cc2)NC(=O)[C@@H]2CCCN2C(=O)[C@H]2CCCN2C(=O)[C@H](CCCCN)NC(=O)[C@H](CCC(N)=O)NC(=O)[C@H](Cc2ccc(O)cc2)NC(=O)[C@@H]2CSSC[C@H](NC1=O)C(=O)N[C@@H](CO)C(=O)N[C@@H](C)C(=O)N1CCC[C@@H]1C(=O)N[C@@H]([C@H](C)N)C(=O)N[C@@H](CCCNC(=N)N)C(=O)N[C@@H](Cc1ccc(O)cc1)C(=O)N2 [Example 6] (cyclo(Y[X1]ACSA[dP][Abu(3S-NH2)]RYCYQK[dP]P); disulfide 4-11)	1.0
136	2.7 ± 1.4	> 50	> 50	81	C[C@@H]1NC(=O)[C@H](Cc2c[nH]cn2)NC(=O)[C@H](Cc2ccc(O)cc2)NC(=O)[C@@H]2CCCN2C(=O)[C@H]2CCCN2C(=O)[C@H](CCCCN)NC(=O)[C@H](CCC(N)=O)NC(=O)[C@H](Cc2ccc(O)cc2)OC(=O)[C@@H]2CSSC[C@H](NC1=O)C(=O)N[C@@H](CO)C(=O)N[C@@H](C)C(=O)N1CCC[C@@H]1C(=O)N[C@@H]([C@H](C)N)C(=O)N[C@@H](CCCNC(=N)N)C(=O)N[C@@H](Cc1ccc(O)cc1)C(=O)N2 [Example 3] (cyclo(YHACSA[dP][Abu(3S-NH2)]RYC[Hpla]QK[dP]P); disulfide 4-11)	0.4
